According to patent US6358885B1, “Substituted phenylheterocyclic herbicides” (Mississippi State University, priority 1992, dated 2002):

Tests used:
Test in all cases: Test G preemergence/postemergence greenhouse plant response rating 0 to 100
large crabgrass = type: in vivo, Digitaria sanguinalis; conditions: 0 to 100 scale
How it was run: (§1)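 Greenhouse pots, one species each; non-phytotoxic solvent vehicle. Read-out: visual injury vs untreated, 13–21 DAT. Dash denotes no result.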

common purslane = type: in vivo, Portulaca oleracea; conditions: 0 to 100 scale
How it was run: as §1

guineagrass = type: in vivo, Panicum maximum; conditions: 0 to 100 scale
How it was run: as §1

goosegrass = type: in vivo, Eleusine indica; conditions: 0 to 100 scale
How it was run: as §1

smooth crabgrass = type: in vivo, Digitaria ischaemum; conditions: 0 to 100 scale
How it was run: as §1

common ragweed = type: in vivo, Ambrosia elatior; conditions: 0 to 100 scale
How it was run: as §1

bermudagrass = type: in vivo, Cynodon dactylon; conditions: 0 to 100 scale
How it was run: as §1

johnsongrass = type: in vivo, Sorghum halepense; conditions: 0 to 100 scale
How it was run: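 Pre- and postemergence treatments used compound in non-phytotoxic solvent on potted greenhouse plants grown from seed, rhizome or plant part. Postemergence plants were at the 2–4 leaf stage; damage was assessed by eye versus untreated pots after 13–21 days.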

broadleaf signalgrass = type: in vivo, Brachiaria plantaginea; conditions: 0 to 100 scale
How it was run: as §1

purple nutsedge = type: in vivo, Cyperus rotundus; conditions: Rate 125 g/ha, 0 to 100 scale
How it was run: as §1

yellow nutsedge = type: in vivo, Cyperus esculentus; conditions: Rate 125 g/ha, 0 to 100 scale
How it was run: as §1

itchgrass = type: in vivo, Rottboellia exaltata; conditions: 0 to 100 scale
How it was run: as §1

pitted morningglory = type: in vivo, Ipomoea lacunosa; conditions: 0 to 100 scale
How it was run: as §1

dallisgrass = type: in vivo, Paspalum dilatatum; conditions: 0 to 100 scale
How it was run: as §1

alfalfa = type: in vivo, Medicago ativa; conditions: 0 to 100 scale
How it was run: as §1

annual bluegrass = type: in vivo, Poa annua; conditions: 0 to 100 scale
How it was run: as §1

peanut = type: in vivo, Arachis hypoagaea; conditions: 0 to 100 scale
How it was run: as §1

## CCCN1C(=O)COc2cc(F)c(-c3nn4c(c3Cl)CCCC4)cc21 [Compound 32]
Large crabgrass; POSTEMERGENCE, Rate 125 g/ha
  Plant response rating, Large Crabgrass: 0
Large crabgrass; POSTEMERGENCE, Rate 250 g/ha
  Plant response rating, Large Crabgrass: 0
Large crabgrass; PREEMERGENCE, Rate 125 g/ha
  Plant response rating, Large Crabgrass: 0
Large crabgrass; PREEMERGENCE, Rate 250 g/ha
  Plant response rating, Large Crabgrass: 0
Common purslane; POSTEMERGENCE, Rate 125 g/ha
  Plant response rating, Cmn Purslane: 100
Common purslane; POSTEMERGENCE, Rate 250 g/ha
  Plant response rating, Cmn Purslane: 80
Common purslane; PREEMERGENCE, Rate 125 g/ha
  Plant response rating, Cmn Purslane: 0
Common purslane; PREEMERGENCE, Rate 250 g/ha
  Plant response rating, Cmn Purslane: 100
guineagrass; POSTEMERGENCE, Rate 125 g/ha
  Plant response rating, Guineagrass: 0
guineagrass; POSTEMERGENCE, Rate 250 g/ha
  Plant response rating, Guineagrass: 0
guineagrass; PREEMERGENCE, Rate 125 g/ha
  Plant response rating, Guineagrass: 0
guineagrass; PREEMERGENCE, Rate 250 g/ha
  Plant response rating, Guineagrass: 0
goosegrass; POSTEMERGENCE, Rate 125 g/ha
  Plant response rating, Goosegrass: 0
goosegrass; POSTEMERGENCE, Rate 250 g/ha
  Plant response rating, Goosegrass: 0
goosegrass; PREEMERGENCE, Rate 125 g/ha
  Plant response rating, Goosegrass: 0
goosegrass; PREEMERGENCE, Rate 250 g/ha
  Plant response rating, Goosegrass: 0
Smooth crabgrass; POSTEMERGENCE, Rate 125 g/ha
  Plant response rating, Smooth Crabgras: 0
Smooth crabgrass; POSTEMERGENCE, Rate 250 g/ha
  Plant response rating, Smooth Crabgras: 0
Smooth crabgrass; PREEMERGENCE, Rate 125 g/ha
  Plant response rating, Smooth Crabgras: 0
Smooth crabgrass; PREEMERGENCE, Rate 250 g/ha
  Plant response rating, Smooth Crabgras: 0
Common ragweed; POSTEMERGENCE, Rate 125 g/ha
  Plant response rating, Cmn Ragweed: 100
Common ragweed; POSTEMERGENCE, Rate 250 g/ha
  Plant response rating, Cmn Ragweed: 60
Common ragweed; PREEMERGENCE, Rate 125 g/ha
  Plant response rating, Cmn Ragweed: 0
Common ragweed; PREEMERGENCE, Rate 250 g/ha
  Plant response rating, Cmn Ragweed: 0
bermudagrass; POSTEMERGENCE, Rate 125 g/ha
  Plant response rating, Bermudagrass: 0
bermudagrass; POSTEMERGENCE, Rate 250 g/ha
  Plant response rating, Bermudagrass: 0
bermudagrass; PREEMERGENCE, Rate 125 g/ha
  Plant response rating, Bermudagrass: 0
bermudagrass; PREEMERGENCE, Rate 250 g/ha
  Plant response rating, Bermudagrass: 0
johnsongrass; POSTEMERGENCE, Rate 125 g/ha
  Plant response rating, Johnsongrass: 0
johnsongrass; POSTEMERGENCE, Rate 250 g/ha
  Plant response rating, Johnsongrass: 0
johnsongrass; PREEMERGENCE, Rate 125 g/ha
  Plant response rating, Johnsongrass: 0
johnsongrass; PREEMERGENCE, Rate 250 g/ha
  Plant response rating, Johnsongrass: 0
Broadleaf signalgrass; POSTEMERGENCE, Rate 125 g/ha
  Plant response rating, Brdlf Sgnlgrass: 0
Broadleaf signalgrass; POSTEMERGENCE, Rate 250 g/ha
  Plant response rating, Brdlf Sgnlgrass: 0
Broadleaf signalgrass; PREEMERGENCE, Rate 125 g/ha
  Plant response rating, Brdlf Sgnlgrass: 0
Broadleaf signalgrass; PREEMERGENCE, Rate 250 g/ha
  Plant response rating, Brdlf Sgnlgrass: 0
Purple nutsedge; POSTEMERGENCE
  Plant response rating, Purple Nutsedge: 10
Purple nutsedge; PREEMERGENCE
  Plant response rating, Purple Nutsedge: 0
Yellow nutsedge; POSTEMERGENCE
  Plant response rating, Yellow Nutsedge: 0
Yellow nutsedge; PREEMERGENCE
  Plant response rating, Yellow Nutsedge: 0
itchgrass; POSTEMERGENCE, Rate 125 g/ha
  Plant response rating, Itchgrass: 0
itchgrass; POSTEMERGENCE, Rate 250 g/ha
  Plant response rating, Itchgrass: 0
itchgrass; PREEMERGENCE, Rate 125 g/ha
  Plant response rating, Itchgrass: 0
itchgrass; PREEMERGENCE, Rate 250 g/ha
  Plant response rating, Itchgrass: 0
Pitted morningglory; POSTEMERGENCE, Rate 125 g/ha
  Plant response rating, Pit Morninglory: 70
Pitted morningglory; POSTEMERGENCE, Rate 250 g/ha
  Plant response rating, Pit Morninglory: 30
Pitted morningglory; PREEMERGENCE, Rate 125 g/ha
  Plant response rating, Pit Morninglory: 0
Pitted morningglory; PREEMERGENCE, Rate 250 g/ha
  Plant response rating, Pit Morninglory: 0
dallisgrass; POSTEMERGENCE, Rate 125 g/ha
  Plant response rating, Dallisgrass: 0
dallisgrass; POSTEMERGENCE, Rate 250 g/ha
  Plant response rating, Dallisgrass: 0
dallisgrass; PREEMERGENCE, Rate 125 g/ha
  Plant response rating, Dallisgrass: 0
dallisgrass; PREEMERGENCE, Rate 250 g/ha
  Plant response rating, Dallisgrass: 0
alfalfa; POSTEMERGENCE, Rate 125 g/ha
  Plant response rating, Alfalfa Var.: 0
alfalfa; POSTEMERGENCE, Rate 250 g/ha
  Plant response rating, Alfalfa Var.: 0
alfalfa; PREEMERGENCE, Rate 125 g/ha
  Plant response rating, Alfalfa Var.: 0
alfalfa; PREEMERGENCE, Rate 250 g/ha
  Plant response rating, Alfalfa Var.: 0
Annual bluegrass; POSTEMERGENCE, Rate 125 g/ha
  Plant response rating, Ann Bluegrass: 0
Annual bluegrass; POSTEMERGENCE, Rate 250 g/ha
  Plant response rating, Ann Bluegrass: 0
Annual bluegrass; PREEMERGENCE, Rate 125 g/ha
  Plant response rating, Ann Bluegrass: 0
Annual bluegrass; PREEMERGENCE, Rate 250 g/ha
  Plant response rating, Ann Bluegrass: 0
peanut; POSTEMERGENCE, Rate 125 g/ha
  Plant response rating, Peanuts: 0
peanut; POSTEMERGENCE, Rate 250 g/ha
  Plant response rating, Peanuts: 0
peanut; PREEMERGENCE, Rate 125 g/ha
  Plant response rating, Peanuts: 0
peanut; PREEMERGENCE, Rate 250 g/ha
  Plant response rating, Peanuts: 0
